Data from patent US20220220100A1 (SOLUTIA CANADA INC., priority 2019, published 2022).

Legend:
Assay type in all cases: physicochemical
[1] = Photostationary state (PSS) and lambda max under simulated sunlight (solar simulator); settings: for PSS (Steady State): head of Table 3; for PSS (Steady State) / PSS (SS): absorbance at photostationary state, 2×10^−5 M solution; for λmax (nm): peak in the visible range, ring-closed (dark) state; for PSS (SS): simulated sunlight (solar simulator)
From the text: The term “photostationary state” (PSS) refers to an equilibrium state of a compound or material where the rate of the ring closing (forward) reaction is equal to the rate of the ring-opening reaction, when irradiated with light in a given region of the spectrum. In other words, the ratio of the ring-open isomer to the ring-closed isomer is at an equilibrium. PSS may be expressed with reference to a light source, or with reference to a type of light, for example, QUV, Xenon-arc lamp, Q-SUN, natural or filtered sunlight, UV, VIS, IR, NIR, full spectrum or the like, or with reference to a particular wavelength or range of wavelengths, or in the presence or absence of a filter. Some ring-open and ring-closed isomers may undergo isomerization from one to the other in response to different wavelengths of light. If a wavelength of light is used where only one of the isomers absorbs, irradiation results in complete isomerization to the other form. 254 nm, 313 nm or 365 nm light are commonly used in studies of UV-absorbing isomers, but this may not be representative of the PSS under other light conditions that include the visible spectrum such as natural or simulated sunlight (“full spectrum” light) and/or with filters that block a portion of the UV component of the light. For example, in a ring-closed (dark) state, the magnitude of the maximum absorbance in the visible range may change with the light source (FIG. 1). The wavelength at this peak in the visible range may be referred to as lambda max, or λmax. […] When full spectrum light from a solar simulator (Xenon arc lamp) is used as a light source (line B), a balance is achieved between the ring-closed (dark) state induced by the UV component, and a ring-open (faded) state induced by the visible component of the light. Inclusion of a UV blocking layer in the light path (line A) may reduce the UV component of the light, and the ring-opening reaction induced by the visible light component becomes more prominent. […] Where desired, the ratio of ring-open and ring-closed isomers at a PSS may be quantified by ^1H NMR spectroscopy, such as described in U.S. Pat. No. 7,777,055. In various embodiments, compounds with an increased absorbance at a photostationary state (PSS), or increased contrast ratio, are an improvement over other diarylethene compounds. A compound with a greater absorbance in the visible range can be used in lesser quantities in a formulation or material to achieve a desired contrast ratio, whereas a compound with a lower absorbance at a PSS may need a higher concentration to achieve a desired contrast ratio.
Photostationary State (PSS)
(§1) UV/Vis spectra were obtained using an OceanOptics™ Spectrophotometer. A 2×10^−5 M solution of compound in solvent was prepared, and photofaded using visible light until absorption in the visible region of the spectrum stabilized. The sample was then irradiated with simulated sunlight (QSUN SS-150 Solar Simulator with xenon arc lamp) until the absorption spectrum stabilized. To obtain PSS in the presence of a UV blocking film, a second sample was prepared and irradiated as described, with a UV blocking film inserted in the light path when irradiating.

[2] = UV/Vis absorbance at 400 nm and Yellowness Index of the ring-open isomer; settings: for Abs @ 400 nm, RO (Absorption of ring-open isomer at 400 nm): 2×10^−5 M solution, 1 cm pathlength cuvette
From the text: In addition to the above, chromophores should have acceptable colour for both the ring-opened and ring-closed isomers. For example, the ring-open isomer of the chromophore should have a Yellowness Index (YI) of less than about 10 and an absorbance at 400 nm, as measured for a 2×10^−5 M solution in a 1 cm pathlength cuvette. For the ring-closed isomer of the chromophore, the lambda max should be between about 475 nm and 700 nm, tunable according to desired colour and number of chromophores in the composition.
as §1

[3] = Solubility in Rhodiasolv IRIS solvent; settings: for Solubility in Rhodiasolv IRIS: Rhodiasolv IRIS (dimethyl-2-methyl glutarate), wt %; for Solubility (in words): relative to the methoxy parent chromophore
From the text: A compound with greater solubility allows for a formulation or material with a greater concentration of coloured molecule to be incorporated into a composition. This may allow for increasing the contrast ratio for a compound with a lesser absorbance at PSS. Examples of solubilizing groups for the compound include alkoxy, ether, ester or siloxy groups. In various embodiments, compounds may be soluble in the solvent component at room temperature at about 6 wt %, 7 wt %, 8 wt %, 9 wt %, 10 wt % or greater for testing to determine whether a compound has application as an exterior glazing or optical filter. If the solubility of a compound in the solvent component is too low, then insufficient darkening may be achieved in the ring-closed configuration, depending on conditions of use for the compound.
Chromophore solutions in Rhodiasolv IRIS were prepared at 1 to 10 wt % loading. Solutions were prepared in a glovebox by charging the chromophore and Rhodiasolv IRIS to a trace-clean vial, and the solution was stirred on a hotplate at 90° C. for 2-24 hours. After cooling, the chromophore solution was injected into glass weathering cells and the fill and vent ports were sealed with a thin disc of Kalrez (FFKM Perfluorinated Elastomer) and secured with a clamp and set-screw. The weathering cells were filled and sealed inside the glove box.

Compound | PSS (Steady State) [1] | λmax (nm) [1] [nm] | YI (Yellowness Index) [2] | Abs @ 400 nm, RO (Absorption of ring-open isomer at 400 nm) [2] | Solubility in Rhodiasolv IRIS [3] [%] | PSS (SS) [1] | Solubility (in words) [3]
COc1ccc2c(C3=C(c4cc(-c5ccc(C(C)(C)C)s5)sc4-c4ccc(C(C)(C)C)s4)C(F)(F)C(F)(F)C3(F)F)c(-c3ccc(C(C)(C)C)cc3)oc2c1 | 0.255 | 575 | 3.32 | 0.0809 | <3 |  | 
COc1cc2oc(-c3ccc(C(C)(C)C)cc3)c(C3=C(c4cc(-c5cc6c(s5)C(C)(C)CCC6(C)C)sc4-c4cc5c(s4)C(C)(C)CCC5(C)C)C(F)(F)C(F)(F)C3(F)F)c2cc1OC |  | 594 | 8.12 | 0.131 | <3 | 0.358 | 
COCCCOc1cc2oc(-c3ccc(C(C)(C)C)cc3)c(C3=C(c4cc(-c5cc(C(C)(C)C)cs5)sc4-c4cc(C(C)(C)C)cs4)C(F)(F)C(F)(F)C3(F)F)c2cc1OCCCOC |  | 594 | 4.29 | 0.103 | >10 | 0.319 | 
CC(C)(C)c1ccc(-c2oc3cc(OCCN4C(=O)CCC4=O)c(OCCN4C(=O)CCC4=O)cc3c2C2=C(c3cc(-c4cc(C(C)(C)C)cs4)sc3-c3cc(C(C)(C)C)cs3)C(F)(F)C(F)(F)C2(F)F)cc1 |  | 585 | 4.72 | 0.136 | >10 | 0.364 | 
COc1cc2oc(-c3ccc(C(C)(C)C)cc3)c(C3=C(c4cc(-c5ccc(C(C)(C)C)s5)sc4-c4ccc(C(C)(C)C)s4)C(F)(F)C(F)(F)C3(F)F)c2cc1OC [Chromophore S340, 2-(4-(tert-butyl)phenyl)-3-(2-(5,5″-di-tert-butyl-[2,2′:5′,2″-terthiophen]-3′-yl)-3,3,4,4,5,5-hexafluorocyclopent-1-en-1-yl)-5,6-dimethoxybenzofuran] | 0.417 | 591 | 5.61 | 0.128 | 7 |  | 
CC(C)(C)c1ccc(-c2oc3ccccc3c2C2=C(c3cc(-c4ccc(C(C)(C)C)s4)sc3-c3ccc(C(C)(C)C)s3)C(F)(F)C(F)(F)C2(F)F)cc1 [Chromophore S343, 2-(4-(tert-butyl)phenyl)-3-(2-(5,5″-di-tert-butyl-[2,2′:5′,2″-terthiophen]-3′-yl)-3,3,4,4,5,5-hexafluorocyclopent-1-en-1-yl)benzofuran] | 0.315 | 573 | 4.87 | 0.11 | <1 |  | 
COc1ccc2oc(-c3ccc(C(C)(C)C)cc3)c(C3=C(c4cc(-c5ccc(C(C)(C)C)s5)sc4-c4ccc(C(C)(C)C)s4)C(F)(F)C(F)(F)C3(F)F)c2c1 [Chromophore S344, 2-(4-(tert-butyl)phenyl)-3-(2-(5,5″-di-tert-butyl-[2,2′:5′,2″-terthiophen]-3′-yl)-3,3,4,4,5,5-hexafluorocyclopent-1-en-1-yl)-5-methoxybenzofuran] | 0.337 | 583 | 2.91 | 0.1 | <3 |  | 
COCCOc1cc2oc(-c3ccc(C(C)(C)C)cc3)c(C3=C(c4cc(-c5ccc(C(C)(C)C)s5)sc4-c4ccc(C(C)(C)C)s4)C(F)(F)C(F)(F)C3(F)F)c2cc1OCCOC [Chromophore S364, 2-(4-(tert-butyl)phenyl)-3-(2-(5,5″-di-tert-butyl-[2,2′:5′,2″-terthiophen]-3′-yl)-3,3,4,4,5,5-hexafluorocyclopent-1-en-1-yl)-5,6-bis(2-methoxyethoxy)benzofuran] | 0.427 | 593 | 4.21 | 0.105 | >10 |  | improved
CC(=O)Oc1cc2oc(-c3ccc(C(C)(C)C)cc3)c(C3=C(c4cc(-c5ccc(C(C)(C)C)s5)sc4-c4ccc(C(C)(C)C)s4)C(F)(F)C(F)(F)C3(F)F)c2cc1OC(C)=O [Chromophore S367, 2-(4-(tert-butyl)phenyl)-3-(2-(5,5″-di-tert-butyl-[2,2′:5′,2″-terthiophen]-3′-yl)-3,3,4,4,5,5-hexafluorocyclopent-1-en-1-yl)benzofuran-5,6-diyl diacetate] | 0.32 | 583 | 5.47 | 0.102 | >10 |  | improved
CCOC(=O)CCCOc1cc2oc(-c3ccc(C(C)(C)C)cc3)c(C3=C(c4cc(-c5ccc(C(C)(C)C)s5)sc4-c4ccc(C(C)(C)C)s4)C(F)(F)C(F)(F)C3(F)F)c2cc1OCCCC(=O)OCC [Chromophore S374, diethyl 4,4′-((2-(4-(tert-butyl)phenyl)-3-(2-(5,5″-di-tert-butyl-[2,2′:5′,2″-terthiophen]-3′-yl)-3,3,4,4,5,5-hexafluorocyclopent-1-en-1-yl)benzofuran-5,6-diyl)bis(oxy))dibutanoate] | 0.422 | 590 | 6.76 | 0.144 | >10 |  | improved
COc1cc2oc(-c3ccc(C(C)(C)C)cc3)c(C3=C(c4cc(-c5cc(C(C)(C)C)cs5)sc4-c4cc(C(C)(C)C)cs4)C(F)(F)C(F)(F)C3(F)F)c2cc1OC [Chromophore S377, 2-(4-(tert-butyl)phenyl)-3-(2-(4,4″-di-tert-butyl-[2,2′:5′,2″-terthiophen]-3′-yl)-3,3,4,4,5,5-hexafluorocyclopent-1-en-1-yl)-5,6-dimethoxybenzofuran] |  | 593 | 4.89 | 0.101 | >5 | 0.308 | 
